Test results as given in patent US4491594A, “Method for treatment of seizures” (Eisai Co., Ltd., priority 1983, dated 1985).

Experiments:
[1] = system: penicillin cortical focus; test: EEG spike discharge in penicillin cortical focus epilepsy model (Co Q10 given after penicillin G); assay type: in vivo, Male Sprague-Dawley rats
Excerpt: (§1) Male Sprague-Dawley rats each having a body weight in the range of 250 to 350 g were used for the experiment.
(§2) Each test rat, anesthetized with ether and immobilized with succinylcholine was subjected to tracheal intubation and fixed to a stereotaxic instrument under artificial respiration. A hole about 3 mm in diameter was made at a part of the skull corresponding to the left-side sensory-motor cortex and the dura mater was cut out to expose the cerebral cortex surface. The skull was immersed in a physiological saline solution. A 2 mm square filter paper impregnated with […] of penicillin (penicillin G) was then applied directly to the cerebral surface to form a penicillin cortical focus. This focus is a typical epilepsy model.
Each rat skull was bared and screw electrodes, four in all, were fixedly planted at the following four locations: two sites 2 mm to the left and right, respectively, from a position 2 mm forward of the bregma, and two sites 3 mm to the left and right, respectively, from a position 6 mm rearward of the bregma. Unipolar and bipolar electroencephalograms (EEG) were recorded by the electrodes. Electrocardiogram readings were simultaneously taken. EEG lead measurements were conducted of (1) four bipolar leads comprising a lead from the left sincipital region to the left occipital region, a lead from the right sincipital region to the right occipital region, a lead from the left to the right sincipital region, and a lead from the left to the right occipital region, and (2) four unipolar leads comprising leads from each of the left sincipital region, left occipital region, right sincipital region and right occipital region.
The corticogram shown in FIG. 6 illustrates the procedure employed. The recordings were carried out from 4 epidural electrodes. LF-LO: bipolar recording from left frontal electrode (LF) to left occipital electrode (LO), RF-RO: bipolar recording from right frontal electrode (RF) to right occipital electrode (RO), LF-RF: bipolar recording from LF to RF, LO-RO: bipolar recording from LO to RO, LF-E: unipolar recording from LF, LO-E: unipolar recording from LO, RF-E: unipolar recording from RF, RO-E: unipolar recording from RO.
83.5 U/μl of penicillin G was absorbed into a 2 mm square filter paper and directly applied to the cerebral cortex surface from an opening formed around the left sensory-motor cortex. coenzyme Q10 (Co Q10) was administered intraperitoneally to each rat, and the EEG patterns were recorded in the same way as above. As a control, a solvent alone was administered intraperitoneally to control rats at the same rate.
Further experiments were conducted by the same procedure as used in Experimental Example 1, except that the time of the administration of coenzyme Q10 was changed. The results are shown in Table 1 below as Experimental Examples 2 to 4. In Table 1, PCG represents penicillin G.

[2] = system: penicillin cortical focus; test: Prevention of EEG spike discharge in penicillin cortical focus model (Co Q10 given before penicillin G); assay type: in vivo, Male Sprague-Dawley rats; conditions: Table 1, Experimental Example 4; 100 mg/kg Co Q10 first, PCG applied 64 minutes thereafter
Excerpt: as §1, §2
Each rat skull was bared and screw electrodes, four in all, were fixedly planted at the following four locations: two sites 2 mm to the left and right, respectively, from a position 2 mm forward of the bregma, and two sites 3 mm to the left and right, respectively, from a position 6 mm rearward of the bregma. Unipolar and bipolar electroencephalograms (EEG) were recorded by the electrodes. Electrocardiogram readings were simultaneously taken. […]

Acute toxicity, rat = conditions: in vivo, read-out: acute dosages
Excerpt: (§3) The results of toxicity tests on coenzyme Q10 used in this invention are shown below.

Acute toxicity, mouse = conditions: in vivo, read-out: acute dosages
Excerpt: as §3

Wistar rats = test: Chronic toxicity, 26 weeks per os; assay type: in vivo, male and female Wistar rats; conditions: 6, 60 and 600 mg/kg/day per os, 26 successive weeks
Method: Coenzyme Q10 was forcibly administered per os to both male and female Wistar rats at doses of 6, 60 and 600 mg/kg/day for a period of 26 successive weeks. After this testing period, an examination of the general condition, a blood test, a urine test and a morphological observation (macroscopic and histologic) were conducted.

Solubility = assay type: physicochemical
[3] = Experimental Example 1, intraperitoneal
[4] = Table 1, Experimental Example 2, 100 mg/kg, 107 minutes after applying PCG
[5] = Table 1, Experimental Example 3, 100 mg/kg, 65 minutes after applying PCG

For `COC1=C(OC)C(=O)C(C/C=C(\C)CC/C=C(\C)CC/C=C(\C)CC/C=C(\C)CC/C=C(\C)CC/C=C(\C)CC/C=C(\C)CC/C=C(\C)CC/C=C(\C)CCC=C(C)C)=C(C)C1=O` [coenzyme Q10], the “duration of disappearance of the spike discharge” value (“duration” below) [1, 3] was “more than 200 minutes”, the “time to disappearance of the spike discharge after administration of coenzyme Q10” value [1, 3] was “about 10 minutes” and the “duration” value [1, 4] was “more than 120 minutes”. The “time to disappearance of the spike discharge after administration of Co Q10” value [1, 4] was 20 min, the “duration” value [1, 5] was “more than 60 minutes” and the “time to disappearance of the spike discharge after administration of Co Q10” value [1, 5] was 19 min. For the same compound, the “time during which no spike discharge occurred” value [2] was “more than 80 minutes”, the LD50 (Acute toxicity, rat; im, intramuscular) was 500 mg/kg and the LD50 (Acute toxicity, rat; iv, Intravous) was 250 mg/kg. It also gave an LD50 (Acute toxicity, rat; oral) of 4000 mg/kg, an LD50 (Acute toxicity, rat; sc, subcutaneous) of 500 mg/kg and an LD50 (Acute toxicity, mouse; im, intramuscular) of 500 mg/kg. The LD50 (Acute toxicity, mouse; iv, Intravous) was 250 mg/kg, the LD50 (Acute toxicity, mouse; oral) was 4000 mg/kg and the LD50 (Acute toxicity, mouse; sc, subcutaneous) was 500 mg/kg. For the same compound, the “general condition, blood test, urine test and morphological observation vs control group” value (Wistar rats) was “No differences at all from the control group were observed”, the solubility (Solubility; in chloroform, benzene, carbon tetrachloride, acetone and ether) was “soluble” and the solubility (Solubility; in ethanol, water and methanol) was “insoluble”.
